Reference: patent US20250382344A1, “Soluble GLP1/GIP/NPY2 Receptor Triple Agonists” (Boehringer Ingelheim International GmH, priority 2024, published 2025)
*1 amine or outer side, *2 acyl side, *3 side chain or, on linkers, in order; H or OH if unused. Where no end group is shown, it is not given here. Side-chain parts run from the residue outwards. [ ]: non-standard residue; d: D form. The star is where a group is joined. C18 diacid = O=C(O)CCCCCCCCCCCCCCCCC(=O)*; γGlu = O=C(O)[C@H](CCC(=O)[*:2])N[*:1]; εLys = N[C@@H](CCCCN[*:1])C(=O)[*:2]; NMeQ = CN[C@@H](CCC(N)=O)C(=O)O; Aib = CC(C)(N)C(=O)O

T1: hGIPR (Homo sapiens, UniProt P48546)
T1 construct: expressed in transfected cells; host or cells: CHO CRE-luciferase reporter cells
T1 sequence (P48546 22-466): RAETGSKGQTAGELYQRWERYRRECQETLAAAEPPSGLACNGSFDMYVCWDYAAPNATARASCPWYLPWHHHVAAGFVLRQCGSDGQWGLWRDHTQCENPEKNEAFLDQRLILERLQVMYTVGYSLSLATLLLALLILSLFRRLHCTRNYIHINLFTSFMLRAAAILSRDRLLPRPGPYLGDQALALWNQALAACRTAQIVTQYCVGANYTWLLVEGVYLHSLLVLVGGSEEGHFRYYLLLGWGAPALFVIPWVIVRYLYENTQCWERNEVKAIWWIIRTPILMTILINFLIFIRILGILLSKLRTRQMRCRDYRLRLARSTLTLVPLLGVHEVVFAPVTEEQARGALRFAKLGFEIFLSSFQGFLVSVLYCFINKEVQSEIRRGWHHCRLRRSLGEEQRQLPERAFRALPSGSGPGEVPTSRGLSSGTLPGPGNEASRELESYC

T2: human neuropeptide Y2 receptor (human, UniProt P49146 1-381)
T2 sequence (looked up): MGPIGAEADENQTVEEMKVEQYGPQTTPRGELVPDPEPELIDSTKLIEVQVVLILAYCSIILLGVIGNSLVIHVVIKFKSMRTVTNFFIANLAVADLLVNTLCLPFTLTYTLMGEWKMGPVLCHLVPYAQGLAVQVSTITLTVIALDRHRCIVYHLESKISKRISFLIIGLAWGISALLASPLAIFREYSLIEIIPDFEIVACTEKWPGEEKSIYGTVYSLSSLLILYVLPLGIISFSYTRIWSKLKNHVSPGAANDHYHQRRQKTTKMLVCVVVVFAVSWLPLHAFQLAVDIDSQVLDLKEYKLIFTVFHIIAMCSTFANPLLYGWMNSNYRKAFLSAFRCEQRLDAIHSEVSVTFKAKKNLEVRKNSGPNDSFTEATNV


What was measured:
[1] = target: T1, hGIPR; test: hGIPR CreLuc assay in 0.5% and 100% plasma (CHO CRE-luciferase reporter cells); assay type: cell-based; details: 0.5% human plasma, read-out: hGIPR 0.5% hP
[2] = Solubility in 0.1 M phosphate buffer at pH 7; assay type: physicochemical; details: 0.1 M phosphate buffer at pH 7, 10 mg/mL final peptide concentration, shaking 2 hours at room temperature, peptides as TFA-salts; measured sample pH 6.5-7.0
[3] = target: T2, human neuropeptide Y2 receptor; test: cell-based or functional assay

| Molecule | EC50 [1] | solubility at 2 h [2] | EC50, CreLuc reporter, 0.5% hP [3] | EC50, CreLuc reporter, 100% hP [3] |
| --- | --- | --- | --- | --- |
| CC[C@H](C)[C@H](NC(=O)[C@H](CC(C)C)NC(=O)[C@H](Cc1c[nH]cn1)NC(=O)[C@H](CCCNC(=N)N)NC(=O)[C@@H](NC(=O)[C@H](Cc1ccccc1)NC(=O)[C@H](C)NC(=O)C(C)(C)NC(=O)[C@H](CCC(N)=O)NC(=O)[C@H](C)NC(=O)[C@H](CCC(N)=O)NC(=O)[C@H](CC(N)=O)NC(=O)[C@H](CCC(=O)O)NC(=O)[C@H](CC(C)C)NC(=O)C(C)(C)NC(=O)[C@@H](NC(=O)[C@H](CO)NC(=O)[C@H](Cc1ccc(O)cc1)NC(=O)[C@H](CC(=O)O)NC(=O)[C@H](CO)NC(=O)[C@@H](NC(=O)[C@H](Cc1ccccc1)NC(=O)[C@@H](NC(=O)CNC(=O)[C@H](CCC(=O)O)NC(=O)C(C)(C)NC(=O)[C@@H](N)Cc1ccc(O)cc1)[C@@H](C)O)[C@@H](C)O)[C@@H](C)CC)C(C)C)C(=O)N[C@@H](CC(N)=O)C(=O)N[C@@H](CCCCNC(=O)[C@@H](N)CCCCNC(=O)CC[C@H](NC(=O)CC[C@H](NC(=O)CC[C@H](NC(=O)CC[C@H](NC(=O)CC[C@H](NC(=O)CC[C@H](NC(=O)CCCCCCCCCCCCCCCCC(=O)O)C(=O)O)C(=O)O)C(=O)O)C(=O)O)C(=O)O)C(=O)O)C(=O)NC(C)(C)C(=O)N[C@H](C(=O)N[C@@H](CCCNC(=N)N)C(=O)N[C@@H](CCC(N)=O)C(=O)N[C@@H](CCCNC(=N)N)C(=O)N[C@@H](Cc1ccc(O)cc1)C(N)=O)[C@@H](C)O [Compound 6, Y-Aib-E-G-T-F-T-S-D-Y-S-I-Aib-L-E-N-Q-A-Q-Aib-A-F-V-R-H-L-I-N-K(1,3)-Aib-T-R-Q-R-Y-NH2.C18DA-gGlu-gGlu-gGlu-gGlu-gGlu-gGlu-eLys(1,2)] | 0.7 nM | 8900 µg/mL | – | – |
| Y[Aib]EGTFTSDYSI[Aib]LEKQAQ[Aib]AFVRHLINK([γGlu-γGlu-γGlu-γGlu-γGlu-γGlu-C18 diacid])[Aib]TR[NMeQ]RY-NH2 [Compound 2] | – | – | 89.9 nM | 258 nM |
| Y[Aib]EGTFTSDYSI[Aib]LEKQAQ[Aib]EFVRHLINK([εLys-γGlu-γGlu-γGlu-γGlu-γGlu-γGlu-γGlu-C18 diacid])[Aib]TRQRY-NH2 [Compound 30] | – | – | 33.9 nM | 81.1 nM |

Results, then the molecule that gave them:

| EC50 [1] | solubility at 2 h [2] | EC50, CreLuc reporter, 0.5% hP [3] | EC50, CreLuc reporter, 100% hP [3] | Molecule |
| --- | --- | --- | --- | --- |
| 0.8 nM | 4200 µg/mL | – | – | CC[C@H](C)[C@H](NC(=O)[C@H](CC(C)C)NC(=O)[C@H](Cc1c[nH]cn1)NC(=O)[C@H](CCCNC(=N)N)NC(=O)[C@@H](NC(=O)[C@H](Cc1ccccc1)NC(=O)[C@H](C)NC(=O)C(C)(C)NC(=O)[C@H](CCC(N)=O)NC(=O)[C@H](C)NC(=O)[C@H](CCC(N)=O)NC(=O)[C@H](CCCCN)NC(=O)[C@H](CCC(=O)O)NC(=O)[C@H](CC(C)C)NC(=O)C(C)(C)NC(=O)[C@@H](NC(=O)[C@H](CO)NC(=O)[C@H](Cc1ccc(O)cc1)NC(=O)[C@H](CC(=O)O)NC(=O)[C@H](CO)NC(=O)[C@@H](NC(=O)[C@H](Cc1ccccc1)NC(=O)[C@@H](NC(=O)CNC(=O)[C@H](CCC(=O)O)NC(=O)C(C)(C)NC(=O)[C@@H](N)Cc1ccc(O)cc1)[C@@H](C)O)[C@@H](C)O)[C@@H](C)CC)C(C)C)C(=O)N[C@@H](CC(N)=O)C(=O)N[C@@H](CCCCNC(=O)[C@@H](N)CCNC(=O)CC[C@H](NC(=O)CC[C@H](NC(=O)CC[C@H](NC(=O)CC[C@H](NC(=O)CC[C@H](NC(=O)CC[C@H](NC(=O)CCCCCCCCCCCCCCCCCCC(=O)O)C(=O)O)C(=O)O)C(=O)O)C(=O)O)C(=O)O)C(=O)O)C(=O)NC(C)(C)C(=O)N[C@H](C(=O)N[C@@H](CCCNC(=N)N)C(=O)N[C@@H](CCC(N)=O)C(=O)N[C@@H](CCCNC(=N)N)C(=O)N[C@@H](Cc1ccc(O)cc1)C(N)=O)[C@@H](C)O [Compound 46, Y-Aib-E-G-T-F-T-S-D-Y-S-I-Aib-L-E-K-Q-A-Q-Aib-A-F-V-R-H-L-I-N-K(1,3)-Aib-T-R-Q-R-Y-NH2.C20DA-gGlu-gGlu-gGlu-gGlu-gGlu-gGlu-gDab(1,2)] |
| 0.2 nM | 8200 µg/mL | – | – | CC[C@H](C)[C@H](NC(=O)[C@H](CC(C)C)NC(=O)[C@H](Cc1c[nH]cn1)NC(=O)[C@H](CCCNC(=N)N)NC(=O)[C@@H](NC(=O)[C@H](Cc1ccccc1)NC(=O)[C@H](C)NC(=O)C(C)(C)NC(=O)[C@H](CCC(N)=O)NC(=O)[C@H](C)NC(=O)[C@H](CCC(N)=O)NC(=O)[C@H](CCCCN)NC(=O)[C@H](CCC(=O)O)NC(=O)[C@H](CC(C)C)NC(=O)C(C)(C)NC(=O)[C@@H](NC(=O)[C@H](CO)NC(=O)[C@H](Cc1ccc(O)cc1)NC(=O)[C@H](CC(=O)O)NC(=O)[C@H](CO)NC(=O)[C@@H](NC(=O)[C@H](Cc1ccccc1)NC(=O)[C@@H](NC(=O)CNC(=O)[C@H](CCC(=O)O)NC(=O)C(C)(C)NC(=O)[C@@H](N)Cc1ccc(O)cc1)[C@@H](C)O)[C@@H](C)O)[C@@H](C)CC)C(C)C)C(=O)N[C@@H](CC(N)=O)C(=O)N[C@@H](CCCCNC(=O)CC[C@H](NC(=O)CC[C@H](NC(=O)CC[C@H](NC(=O)[C@@H](N)CCCCNC(=O)CC[C@H](NC(=O)CC[C@H](NC(=O)CC[C@H](NC(=O)CCCCCCCCCCCCCCCCC(=O)O)C(=O)O)C(=O)O)C(=O)O)C(=O)O)C(=O)O)C(=O)O)C(=O)NC(C)(C)C(=O)N[C@H](C(=O)N[C@@H](CCCNC(=N)N)C(=O)N[C@@H](CCC(N)=O)C(=O)N[C@@H](CCCNC(=N)N)C(=O)N[C@@H](Cc1ccc(O)cc1)C(N)=O)[C@@H](C)O [Compound 168, Y-Aib-E-G-T-F-T-S-D-Y-S-I-Aib-L-E-K-Q-A-Q-Aib-A-F-V-R-H-L-I-N-K(1,3)-Aib-T-R-Q-R-Y-NH2.C18DA-gGlu-gGlu-gGlu-eLys-gGlu-gGlu-gGlu(1,2)] |
| 0.7 nM | 3900 µg/mL | – | – | CC[C@H](C)[C@H](NC(=O)[C@H](CC(C)C)NC(=O)[C@H](Cc1c[nH]cn1)NC(=O)[C@H](CCCNC(=N)N)NC(=O)[C@@H](NC(=O)[C@H](Cc1ccccc1)NC(=O)[C@H](C)NC(=O)C(C)(C)NC(=O)[C@H](CCC(N)=O)NC(=O)[C@H](C)NC(=O)[C@H](CCC(N)=O)NC(=O)[C@H](CC(C)C)NC(=O)[C@H](CCC(=O)O)NC(=O)[C@H](CC(C)C)NC(=O)C(C)(C)NC(=O)[C@@H](NC(=O)[C@H](CO)NC(=O)[C@H](Cc1ccc(O)cc1)NC(=O)[C@H](CC(=O)O)NC(=O)[C@H](CO)NC(=O)[C@@H](NC(=O)[C@H](Cc1ccccc1)NC(=O)[C@@H](NC(=O)CNC(=O)[C@H](CCC(=O)O)NC(=O)C(C)(C)NC(=O)[C@@H](N)Cc1ccc(O)cc1)[C@@H](C)O)[C@@H](C)O)[C@@H](C)CC)C(C)C)C(=O)N[C@@H](CC(N)=O)C(=O)N[C@@H](CCCCNC(=O)[C@@H](N)CCCCNC(=O)CC[C@H](NC(=O)CC[C@H](NC(=O)CC[C@H](NC(=O)CC[C@H](NC(=O)CC[C@H](NC(=O)CC[C@H](NC(=O)CCCCCCCCCCCCCCCCC(=O)O)C(=O)O)C(=O)O)C(=O)O)C(=O)O)C(=O)O)C(=O)O)C(=O)NC(C)(C)C(=O)N[C@H](C(=O)N[C@@H](CCCNC(=N)N)C(=O)N[C@@H](CCC(N)=O)C(=O)N[C@@H](CCCNC(=N)N)C(=O)N[C@@H](Cc1ccc(O)cc1)C(N)=O)[C@@H](C)O [Compound 65, Y-Aib-E-G-T-F-T-S-D-Y-S-I-Aib-L-E-L-Q-A-Q-Aib-A-F-V-R-H-L-I-N-K(1,3)-Aib-T-R-Q-R-Y-NH2.C18DA-gGlu-gGlu-gGlu-gGlu-gGlu-gGlu-eLys(1,2)] |
| – | – | 14.6 nM | 28 nM | Y[Aib]EGTFTSDYSI[Aib]LEKQAQ[Aib]AFVRHLINK([γGlu-γGlu-εLys-γGlu-γGlu-γGlu-γGlu-C18 diacid])[Aib]TRQRY-NH2 [Compound 34] |
